According to ChEMBL document CHEMBL1153245, “A profile of the in vitro anti-tumor activity of imidazolium-based ionic liquids” (2010):

How the values were obtained:
Type in all cases: functional
HL-60(TB) = assay: Anticancer activity against human HL-60(TB) cells assessed cell growth at 10 uM after 48 hrs by sulforhodamine B assay relative to control
SR [1] = assay: Anticancer activity against human SR cells assessed cell growth at 10 uM after 48 hrs by sulforhodamine B assay relative to control
SW-620 [2] = assay: Anticancer activity against human SW620 cells assessed cell growth at 10 uM after 48 hrs by sulforhodamine B assay relative to control
A498 = assay: Anticancer activity against human A498 cells after 48 hrs by sulforhodamine B assay; settings: for CC50: read-out: LC50 (the source's name)
HCC 2998 = assay: Anticancer activity against human HCC2998 cells after 48 hrs by sulforhodamine B assay; settings: for CC50: read-out: LC50 (the source's name)
NCI-H23 = assay: Anticancer activity against human NCI-H23 cells after 48 hrs by sulforhodamine B assay; settings: for CC50: read-out: LC50 (the source's name)
ACHN = assay: Anticancer activity against human ACHN cells assessed cell growth at 10 uM after 48 hrs by sulforhodamine B assay relative to control
MDA-MB-435 = assay: Anticancer activity against human MDA-MB-435 cells assessed cell growth at 10 uM after 48 hrs by sulforhodamine B assay relative to control
M14 = assay: Anticancer activity against human M14 cells after 48 hrs by sulforhodamine B assay
UO-31 = assay: Anticancer activity against human UO31 cells after 48 hrs by sulforhodamine B assay
SK-OV-3 = assay: Anticancer activity against human SKOV3 cells after 48 hrs by sulforhodamine B assay; settings: for CC50: read-out: LC50 (the source's name)
HOP-92 = assay: Anticancer activity against human HOP92 cells after 48 hrs by sulforhodamine B assay; settings: for CC50: read-out: LC50 (the source's name)
UACC-257 = assay: Anticancer activity against human UACC257 cells after 48 hrs by sulforhodamine B assay
MCF7 [3] = assay: Anticancer activity against human MCF7 cells assessed cell growth at 10 uM after 48 hrs by sulforhodamine B assay relative to control
TK-10 = assay: Anticancer activity against human TK10 cells after 48 hrs by sulforhodamine B assay
DU-145 [4] = assay: Anticancer activity against human DU145 cells assessed cell growth at 10 uM after 48 hrs by sulforhodamine B assay relative to control
OVCAR-8 = assay: Anticancer activity against human OVCAR8 cells after 48 hrs by sulforhodamine B assay
OVCAR-3 = assay: Anticancer activity against human OVCAR-3 cells after 48 hrs by sulforhodamine B assay
KM12 = assay: Anticancer activity against human KM12 cells after 48 hrs by sulforhodamine B assay; settings: for CC50: read-out: LC50 (the source's name)
NCI-H226 [5] = assay: Anticancer activity against human NCI-H226 cells after 48 hrs by sulforhodamine B assay
DU-145 [6] = assay: Anticancer activity against human DU145 cells after 48 hrs by sulforhodamine B assay; settings: for CC50: read-out: LC50 (the source's name)
SF-295 = assay: Anticancer activity against human SF295 cells after 48 hrs by sulforhodamine B assay; settings: for CC50: read-out: LC50 (the source's name)
U-251 = assay: Anticancer activity against human U251 cells after 48 hrs by sulforhodamine B assay; settings: for CC50: read-out: LC50 (the source's name)
RXF 393 [7] = assay: Anticancer activity against human RXF393 cells after 48 hrs by sulforhodamine B assay
PC-3 = assay: Anticancer activity against human PC3 cells after 48 hrs by sulforhodamine B assay; settings: for CC50: read-out: LC50 (the source's name)
SF-268 = assay: Anticancer activity against human SF268 cells assessed cell growth at 10 uM after 48 hrs by sulforhodamine B assay relative to control
MCF7 [8] = assay: Anticancer activity against human MCF7 cells after 48 hrs by sulforhodamine B assay
Malme-3M = assay: Anticancer activity against human MALME-3M cells assessed cell growth at 10 uM after 48 hrs by sulforhodamine B assay relative to control
SN12C = assay: Anticancer activity against human SN12C cells after 48 hrs by sulforhodamine B assay
COLO 205 = assay: Anticancer activity against human COLO205 cells after 48 hrs by sulforhodamine B assay
MOLT-4 = assay: Anticancer activity against human MOLT4 cells assessed cell growth at 10 uM after 48 hrs by sulforhodamine B assay relative to control
CCRF-CEM = assay: Anticancer activity against human CCRF-CEM cells assessed cell growth at 10 uM after 48 hrs by sulforhodamine B assay relative to control
SNB-75 = assay: Anticancer activity against human SNB75 cells after 48 hrs by sulforhodamine B assay; settings: for CC50: read-out: LC50 (the source's name)
NCI-H460 = assay: Anticancer activity against human NCI-H460 cells after 48 hrs by sulforhodamine B assay
HCT-116 = assay: Anticancer activity against human HCT116 cells after 48 hrs by sulforhodamine B assay
SW-620 [9] = assay: Anticancer activity against human SW620 cells after 48 hrs by sulforhodamine B assay
K562 = assay: Anticancer activity against human K562 cells assessed cell growth at 10 uM after 48 hrs by sulforhodamine B assay relative to control
RXF 393 [10] = assay: Anticancer activity against human RXF393 cells assessed cell growth at 10 uM after 48 hrs by sulforhodamine B assay relative to control
HOP-62 = assay: Anticancer activity against human HOP62 cells after 48 hrs by sulforhodamine B assay; settings: for CC50: read-out: LC50 (the source's name)
SR [11] = assay: Anticancer activity against human SR cells after 48 hrs by sulforhodamine B assay; settings: for CC50: read-out: LC50 (the source's name)
MDA-MB-468 = assay: Anticancer activity against human MDA-MB-468 cells after 48 hrs by sulforhodamine B assay
NCI-H226 [12] = assay: Anticancer activity against human NCI-H226 cells assessed cell growth at 10 uM after 48 hrs by sulforhodamine B assay relative to control

SMILES: CCCCCCCCCCCC[n+]1ccn(C)c1.[Cl-]
- Activity (HL-60(TB)): 51.9%
- Activity (SR [1]): 103.6%
- Activity (SW-620 [2]): 44.11%
- GI50 (A498; Homo sapiens, A498, 48 h): 4.28 µM
- CC50 (A498; Homo sapiens, A498, 48 h): > 100 µM
- GI50 (HCC 2998): 1.89 µM
- CC50 (HCC 2998; Homo sapiens, HCC 2998, 48 h): > 100 µM
- GI50 (NCI-H23): 0.885 µM
- CC50 (NCI-H23; Homo sapiens, NCI-H23, 48 h): > 100 µM
- Activity (ACHN): 45.02%
- Activity (MDA-MB-435): 7.98%
- GI50 (M14): 1.92 µM
- GI50 (UO-31; Homo sapiens, UO-31, 48 h): 10.2 µM
- GI50 (SK-OV-3; Homo sapiens, SK-OV-3, 48 h): 4.76 µM
- CC50 (SK-OV-3; Homo sapiens, SK-OV-3, 48 h): > 100 µM
- GI50 (HOP-92; Homo sapiens, HOP-92, 48 h): 5.3 µM
- CC50 (HOP-92; Homo sapiens, HOP-92, 48 h): > 100 µM
- GI50 (UACC-257; Homo sapiens, UACC-257, 48 h): 1.68 µM
- Activity (MCF7 [3]): 3.94%
- GI50 (TK-10; Homo sapiens, TK-10, 48 h): 1.92 µM
- Activity (DU-145 [4]): 6.6%
- GI50 (OVCAR-8; Homo sapiens, OVCAR-8, 48 h): 2.18 µM
- GI50 (OVCAR-3; Homo sapiens, OVCAR-3, 48 h): 2.84 µM
- GI50 (KM12; Homo sapiens, KM12, 48 h): 2.09 µM
- CC50 (KM12): 85.8 µM
- GI50 (NCI-H226 [5]; Homo sapiens, NCI-H226, 48 h): 3.55 µM
- GI50 (DU-145 [6]): 0.688 µM
- CC50 (DU-145 [6]; Homo sapiens, DU-145, 48 h): > 100 µM
- GI50 (SF-295; Homo sapiens, SF-295, 48 h): 2.36 µM
- CC50 (SF-295; Homo sapiens, SF-295, 48 h): > 100 µM
- GI50 (U-251; Homo sapiens, U-251, 48 h): 2.15 µM
- CC50 (U-251; Homo sapiens, U-251, 48 h): > 100 µM
- GI50 (RXF 393 [7]; Homo sapiens, RXF 393, 48 h): 5.9 µM
- GI50 (PC-3; Homo sapiens, PC-3, 48 h): 1.82 µM
- CC50 (PC-3; Homo sapiens, PC-3, 48 h): > 100 µM
- Activity (SF-268): 58.74%
- GI50 (MCF7 [8]; Homo sapiens, MCF7, 48 h): 1.69 µM
- Activity (Malme-3M): 24.55%
- GI50 (SN12C; Homo sapiens, SN12C, 48 h): 2.76 µM
- GI50 (COLO 205; Homo sapiens, COLO 205, 48 h): 2.62 µM
- CC50 (COLO 205; Homo sapiens, COLO 205, 48 h, read-out: LC50 (the source's name)): > 100 µM
- Activity (MOLT-4): 78.62%
- Activity (CCRF-CEM): 110.51%
- GI50 (SNB-75; Homo sapiens, SNB-75, 48 h): 2.74 µM
- CC50 (SNB-75; Homo sapiens, SNB-75, 48 h): 56.8 µM
- GI50 (NCI-H460; Homo sapiens, NCI-H460, 48 h): 3.39 µM
- GI50 (HCT-116; Homo sapiens, HCT-116, 48 h): 3.59 µM
- CC50 (HCT-116; Homo sapiens, HCT-116, 48 h, read-out: LC50 (the source's name)): > 100 µM
- GI50 (SW-620 [9]): 2.97 µM
- Activity (K562): 64.21%
- Activity (RXF 393 [10]): -20.81%
- GI50 (HOP-62; Homo sapiens, HOP-62, 48 h): 4.86 µM
- CC50 (HOP-62; Homo sapiens, HOP-62, 48 h): > 100 µM
- GI50 (SR [11]; Homo sapiens, SR, 48 h): 0.597 µM
- CC50 (SR [11]; Homo sapiens, SR, 48 h): 97.6 µM
- GI50 (MDA-MB-468; Homo sapiens, MDA-MB-468, 48 h): 0.384 µM
- Activity (NCI-H226 [12]): 30.42%

SMILES: CCCCCCCCCCCCCCCCCC[n+]1ccn(C)c1.F[P-](F)(F)(F)(F)F
- Activity (HL-60(TB)): 2.58%
- Activity (SR [1]): 13.95%
- Activity (SW-620 [2]): -48.51%
- GI50 (A498): 1.15 µM
- CC50 (A498): 7.55 µM
- GI50 (HCC 2998): 0.293 µM
- CC50 (HCC 2998): 5.87 µM
- GI50 (NCI-H23): 0.424 µM
- CC50 (NCI-H23): 7.98 µM
- Activity (ACHN): 5.45%
- Activity (MDA-MB-435): -71.22%
- GI50 (M14): 0.424 µM
- LC50 (50% lethal concentration) (M14): 6.25 µM
- GI50 (UO-31): 0.657 µM
- LC50 (UO-31): 5.35 µM
- GI50 (SK-OV-3): 1.81 µM
- CC50 (SK-OV-3): 4.2 µM
- GI50 (HOP-92): 0.927 µM
- CC50 (HOP-92): 6.68 µM
- GI50 (UACC-257): 1.69 µM
- LC50 (UACC-257): 9.66 µM
- Activity (MCF7 [3]): 1.35%
- GI50 (TK-10): 0.463 µM
- LC50 (TK-10): 4.76 µM
- Activity (DU-145 [4]): -12.17%
- GI50 (OVCAR-8): 1.3 µM
- LC50 (OVCAR-8): 9.8 µM
- GI50 (OVCAR-3): 0.453 µM
- LC50 (50% lethal concentration) (OVCAR-3): 4.39 µM
- GI50 (KM12): 0.471 µM
- CC50 (KM12): 4 µM
- GI50 (NCI-H226 [5]): 1.17 µM
- LC50 (NCI-H226 [5]): 5.74 µM
- GI50 (DU-145 [6]): 1.02 µM
- CC50 (DU-145 [6]): 4.68 µM
- GI50 (SF-295): 0.503 µM
- CC50 (SF-295): 6.02 µM
- GI50 (U-251): 0.482 µM
- CC50 (U-251): 4.2 µM
- GI50 (RXF 393 [7]): 0.467 µM
- LC50 (RXF 393 [7]): 5.98 µM
- GI50 (PC-3): 0.286 µM
- CC50 (PC-3): 3.54 µM
- Activity (SF-268): -48.33%
- GI50 (MCF7 [8]): 0.728 µM
- LC50 (50% cell kill) (MCF7 [8]): 4.5 µM
- Activity (Malme-3M): -46.96%
- GI50 (SN12C): 1.2 µM
- LC50 (SN12C): 5.28 µM
- GI50 (COLO 205): 0.389 µM
- Activity (MOLT-4): 2.98%
- Activity (CCRF-CEM): 13.72%
- GI50 (SNB-75): 0.991 µM
- CC50 (SNB-75): 6.5 µM
- GI50 (NCI-H460): 0.636 µM
- LC50 (NCI-H460): 4.38 µM
- GI50 (HCT-116): 0.411 µM
- GI50 (SW-620 [9]): 0.519 µM
- LC50 (SW-620 [9]): 4.32 µM
- Activity (K562): 14.23%
- Activity (RXF 393 [10]): -52.84%
- GI50 (HOP-62): 1.45 µM
- CC50 (HOP-62): 7.77 µM
- GI50 (SR [11]): 1.85 µM
- CC50 (SR [11]): > 100 µM
- GI50 (MDA-MB-468): 0.159 µM
- LC50 (MDA-MB-468): 5.11 µM
- Activity (NCI-H226 [12]): -34.72%
